In a melting point compilation (Tetko et al.; mined from patent text by program, amines drawn as free bases though some values may be those of a salt):

Row | SMILES | melting point [°C]
1 | CC(CC(O)(C(=O)Nc1ccc2c(c1)COC2=O)C(F)(F)F)c1ccccc1 (stereo unspecified) | 166 to 168
2 | CCn1c(-c2ccc(OC)c(OC)c2)cc(=O)n(C)c1=O | 110 to 120
3 | CN(CCO)S(=O)(=O)c1cc(NC(=O)c2cnn3c(C(F)F)cc(-c4ccc(C(F)(F)F)cc4)nc23)c(Cl)s1 | 231
4 | CCOC(=O)CC(O)CC(O)C=Cc1c(C(C)C)sc(-c2ccccc2)c1-c1ccc(F)cc1 (stereo unspecified) | 123 to 125
5 | CN1C(=O)Cc2ccc(F)cc21 | 100 to 101
6 | CC(C)(C)c1nc2ccc(Cl)nn2n1 | 128 to 130
7 | Cc1oc(-c2ccccc2)nc1CCOc1ccc(C[C@@H](C(=O)O)n2ccc(-c3ccccc3)c2)cc1 | 146 to 147
8 | Nc1sc(CC(O)CO)cc1C(=O)c1ccccc1Cl (stereo unspecified) | 136 to 137
9 | C=CC(=O)N1CC(c2ccc(Cl)cc2)Sc2ccccc21 (stereo unspecified) | 122 to 124
10 | CN1CCC(c2c(O)cc(O)c3c(=O)cc(-c4ccccc4Cl)oc23)C1C(=O)O (stereo unspecified) | 295 to 297
11 | CCS(=O)(=O)N(C(C)=O)c1cc(-n2nc(C(F)(F)F)n(C)c2=O)c(F)cc1C#N | 179
12 | Ic1n[nH]c2ccccc12 | 54 to 55
13 | CC(=O)Nc1c(SC(F)(F)F)c(C#N)nn1-c1c(Cl)cc(C(F)(F)F)cc1Cl | 217 to 218
14 | COc1cc(Nc2nsc(-c3ccccc3)n2)ccc1-c1cnco1 | 260 to 261
15 | O=C1C=C(N2CCCCC2)c2oc3ccccc3c2C1=O | 151 to 156
16 | CCCCn1cc(C2CCN(Cc3ccc(OC)c(C(=O)O)c3)CC2)c2cccnc21 | 174 to 175
17 | N#Cc1ccc(NC(=O)n2ccc3cc(Oc4cc(CC(N)=O)ncn4)ccc32)cc1C(F)(F)F | 204 to 209
18 | Nc1c(SC(F)(F)F)cnn1-c1c(Cl)cc(C(F)(F)F)cc1Cl | 113 to 117
19 | CC(NC(=O)NCCCCC1CCSS1)C(=O)NS(N)(=O)=O (stereo unspecified) | 156 to 157
20 | Cc1oc(-c2ccccc2)nc1COc1cc(CCl)ccn1 | 104 to 105
21 | CC(C)(C)c1ccc(C(O)CCCN2CCC(=C3c4ccccc4C=Cc4ccccc43)CC2)cc1 (stereo unspecified) | 141 to 142
22 | O=C(NCc1ccccn1)Nc1cc(N2CCCC2=O)ccn1 | 234 to 235
23 | CC(C)(C=O)NC(=O)OC(C)(C)C | 84 to 85
24 | CNc1cc(Oc2ccc(NC(=O)Nc3ccc(-c4ccncc4)c(C(F)(F)F)c3)cc2)ncn1 | 127 to 130
25 | O=c1[nH]c2ccc(Cl)cc2c(=O)n1N1CCOCC1 | 335
26 | CCCn1nnn(-c2cc(OCC(=O)O)c(Cl)cc2Cl)c1=O | 134 to 136

Row | SMILES | melting point [°C]
27 | CC(=O)OCC(=O)c1cc2c(s1)CCC1CC(=O)N(c3ccc(C)cc3)N=C21 (stereo unspecified) | 144 to 145
28 | Cc1c(N2C(=O)C[C@](C)(O)[C@@H]2C)ccc(C#N)c1F | 138 to 141
29 | COc1cc2ncnc(Nc3cccc(Br)c3)c2cc1OCCN1CC(=O)O[C@@H](C)C1 | 190
30 | O=C(O)C(O)c1ccc(-c2ccc(Cl)cc2)s1 (stereo unspecified) | 158 to 160
31 | COc1cc(OC)c(N2CCCC2)cc1/C=C/C(=O)c1ccc(S(=O)(=O)NCC(=O)O)cc1 | 155 to 158
32 | COC(=O)c1ccc(-c2nnc(-c3ccc(OC(F)(F)C(F)(F)F)cc3)o2)cc1 | 185 to 191
33 | NC(C=C(CP(=O)(O)O)c1ccccc1)C(=O)O (stereo unspecified) | 230 to 233
34 | COc1cc(N)c(Cl)cc1C(=O)N[C@H]1CCN(Cc2cnccn2)C[C@H]1OC (relative stereo) | 204
35 | O=C(NO)[C@H](CNS(=O)(=O)c1ccc(OCCc2ccccc2)cc1)N1CCOCC1 | 77
36 | CC(C)CCN1C(=O)C(NC(=O)Oc2ccccc2)C(=O)N(c2ccccc2)c2ccc(Cl)cc21 (stereo unspecified) | 190 to 195
37 | O=C1O[C@@H]2C[C@@]1(O)CC[C@H]2O | 212 to 214
38 | CN1CCN(c2ncnc3oc(-c4ccccc4)c(-c4ccc(F)cc4)c23)CC1 | 143 to 144
39 | COC(=O)c1cc(OCc2cc(SC)cc(SC)c2)cc(OCc2cc(SC)cc(SC)c2)c1 | 121 to 122
40 | O=C(Nc1ccc2ccc(Cl)nc2n1)c1ccc(Cl)cc1 | 268
41 | N#CC(C#N)=C1N(CCCCN2CCCCC2)CCN1CCCCN1CCCCC1 | 96 to 98
42 | Cc1ccccc1CN(c1ncnc2c1ncn2C1OC(CO)C(O)C1O)C1CCCCC1 (stereo unspecified) | 129 to 130
43 | COc1ccc2c(c1)c(-c1cc3nccnc3[nH]1)cn2Cc1ccccc1 | 240 to 244
44 | Cc1cc([N+](=O)[O-])ccc1N=C1SC(=O)CN1CC(C)C | 152
45 | C#CCN1CCCc2ccc(OC(=O)Nc3c(C)cccc3C(C)C)cc21 | 120
46 | CC(C)CC=CC(C)C1CCC2C3=CC=C4CC(O)CCC4(C)C3CCC21C (stereo unspecified) | 120 to 122
47 | Cc1ncc(CCCN2C(=O)c3ccccc3C2=O)s1 | 75
48 | COc1ccccc1Oc1c(O)nc(-c2cccc(OCc3ccccc3)c2)nc1O | 192 to 195
49 | O=C(c1ccc(O)cc1)c1c(F)c(F)c(F)c(F)c1F | 138 to 140
50 | O=C(Nc1ccc2ccc(Cl)nc2n1)c1cccc(F)c1 | 202
51 | CCOCc1nc2c(N)nc3ccccc3c2n1CC1CCN(Cc2ccccc2)O1 (stereo unspecified) | 137 to 138
52 | CCCSc1sc(C(N)=O)c2c1-c1nn(C)cc1CC2 | 208 to 209

Row | SMILES | melting point [°C]
53 | Cc1cccc(-n2nc(C)c3c(Cl)c4ccccc4nc32)n1 | 154
54 | Cc1oc(=O)oc1CS[C@H](C)[C@](O)(Cn1cncn1)c1ccc(F)cc1F (racemic) | 173 to 174
55 | Cc1cc(SC2=C(O)CC(C3CCCC3)(C3CCCC3)OC2=O)c(C(C)(C)C)cc1NS(=O)(=O)c1ccc(C(F)(F)F)cn1 | 127 to 129
56 | O=C(Nc1ccc(F)c(CO)c1)c1ccccn1 | 99 to 122
57 | Cc1nc(CC2OC(COC(=O)c3ccccc3)C(O)C2O)n2nc(Cl)ccc12 (stereo unspecified) | 155 to 157
58 | N#Cc1ccc(N2C(=O)NC3(CCCCC3)C2=O)cc1C(F)(F)F | 187
59 | COC(=O)CCCc1cc2cc(Cl)ccc2n1S(=O)(=O)c1ccc2c(c1)CCC(=O)N2 | 198 to 205
60 | CCOC(=O)CN1CCC(CNC(=O)c2cc(Cl)c(N)[nH]c2=O)CC1 | 162 to 164
61 | Cn1ncnc1COc1nn2c(-c3ccccc3F)nncc2c1-c1cccc(N)c1 | 196 to 200
62 | Cn1nnnc1SCCCC(=O)c1ccccn1 | 73 to 75
63 | Cc1cc(Br)cc(C(=O)Nc2ccc(F)c(C)n2)n1 | 182
64 | Nc1scc2c1C(=O)c1cc(Cl)c(Cl)cc1-2 | 272
65 | CC(=O)OC1CC2(C)C(=O)CCC2C2C=CC3=CC(=O)CCC3C12 (stereo unspecified) | 246 to 248
66 | COc1cc(OCC(=O)N[C@@H]2CCN(Cc3ccccc3)C2)ccc1C=O | 98 to 101
67 | COc1ccccc1NC(=O)N1CCC(=O)C(C(c2ccccc2)c2ccccc2)C1 (stereo unspecified) | 150 to 151
68 | Cc1cc(CCCCCOc2c(C)cc(-c3noc(C)n3)cc2C)on1 | 45 to 46
69 | CN1C=CC2=C(C=CCC2)CC1=O | 81 to 82
70 | Cc1c(C(=O)O)cnn1-c1cc(C(F)(F)F)ccc1Cl | 124 to 125
71 | c1ccc(C2CNc3ccccc3C2)cc1 (stereo unspecified) | 84 to 86
72 | O=C1c2ccccc2-c2ccc(-c3nc(COc4ccc(CCCn5ccnc5)cc4)co3)cc21 | 153 to 154
73 | O=C1CN(C(=O)OCC2c3ccccc3-c3ccccc32)CC(=O)O1 | 180 to 185
74 | CCc1nc2c(N)nc3ccccc3c2s1 | 170 to 172
75 | CC(C)c1cc(S(=O)(=O)c2ccc(N)cc2)cc(N2CCCC2)n1 | 148 to 150
76 | N#CC1c2ccccc2COc2ccc(Cl)cc21 (stereo unspecified) | 113 to 115
77 | CCCc1c(COc2ccc(-c3nnn(CCCN(C)C)n3)cc2)ccc(C(C)=O)c1O | 89 to 91
78 | O=c1ccc([N+](=O)[O-])cn1[C@@H]1c2ccccc2OCC[C@H]1O (relative stereo) | 152 to 155

Row | SMILES | melting point [°C]
79 | COc1ccc(C=CC(=O)c2c(O)cc(OC)cc2OC)cc1 | 111
80 | CCOC(=O)C=C[C@H](Cc1ccc(-c2ccccc2)cc1)NC(=O)OC(C)(C)C | 91 to 94
81 | Cc1cccc2[nH]c(Nc3ccc(C(=O)O)cc3)nc12 | 375 to 378
82 | CCCCc1ncc(/C=C(/C=C/C(=O)O)Cc2cccs2)n1Cc1ccccc1Cl | 191 to 192
83 | CN1C(=O)Cc2cc(C(=O)[C@H]3CC[C@H]3C(=O)O)ccc21 (relative stereo) | 210 to 212
84 | COc1ccc(S(=O)(=O)N(CC(N)=O)c2ccc(Cl)cc2Cc2ccccc2C(F)(F)F)cc1OC | 133
85 | COCC(NC(=O)OCc1ccccc1)C(=O)NCc1ccccc1 (stereo unspecified) | 112 to 114
86 | OCc1cnoc1-c1cccc(Cl)c1 | 80 to 81
87 | O=C1c2c(O)ccc(O)c2C(=O)c2c(NCCNCCO)ccc(O)c21 | 196 to 198
88 | COc1ccc2[nH]c3cnc4c(c3c2c1)C(=O)CC(C)(C)C4 | 230 to 231
89 | O=C(NC(=O)c1ccccc1)NC1CCN(Cc2ccccc2)CC1 | 179 to 180
90 | O=C(O)CCC(=O)c1ccc(Br)c(S(=O)(=O)Cl)c1 | 183 to 185
91 | CC(C)(C)C(=O)C(=CC1CCCCC1)n1cncn1 | 98
92 | O=C(NCC1(c2nc(C3CC3)cs2)CC1)c1ccccc1C(F)(F)F | 83.4 to 84.2
93 | O=C1CC(c2ccco2)Cc2occ(C(F)(F)F)c21 (stereo unspecified) | 94 to 95
94 | Nc1cc(Cl)cc(Cl)c1C(=O)NCc1ccccc1Br | 163 to 167
95 | CCCCC1(CCCC)N[C@@H](c2nc(-c3ccccc3)c[nH]2)Cc2c1sc1ccccc21 | 198 to 200
96 | CCOC(=O)CC1CCCc2cc(C#N)ccc21 (stereo unspecified) | 45 to 47
97 | CCOP(=O)(OCC)C(C)CNC(=O)CCl (stereo unspecified) | 93 to 95
98 | CNS(=O)(=O)c1cc(C)ccc1C=C1c2ccccc2CCc2ccccc21 | 175
99 | Nc1ccc(Cl)cc1NC1CCN(Cc2ccccc2)CC1 | 108
100 | Cc1cc(-c2nc3c(F)c(F)ccc3s2)ccc1N | 204 to 205
101 | N#CC(N)=C(C#N)N=Cc1c(Cl)cc(C(F)(F)F)cc1Cl | 218 to 219
